Experimental data from PubChem BioAssay (NCI).
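Five concentrations, 48 hours, 96-well plates. Abbreviation: GI50, concentration required for 50% inhibition of growth. TGI is the concentration that stops growth completely.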

Experiments:
Assay in all cases: DTP human tumour cell line panel, 48 h
786-0 renal = test system: 786-0 renal
A498 renal = test system: A498 renal
A549 NSCLC = test system: A549 NSCLC
ACHN renal = test system: ACHN renal
BT-549 breast = test system: BT-549 breast
CAKI-1 renal = test system: CAKI-1 renal
CCRF-CEM leukemia = test system: CCRF-CEM leukemia
COLO 205 colon = test system: COLO 205 colon
DU-145 prostate = test system: DU-145 prostate
EKVX NSCLC = test system: EKVX NSCLC
HCC-2998 colon = test system: HCC-2998 colon
HCT-116 colon = test system: HCT-116 colon
HCT-15 colon = test system: HCT-15 colon
HL-60(TB) leukemia = test system: HL-60(TB) leukemia
HOP-62 NSCLC = test system: HOP-62 NSCLC
HOP-92 NSCLC = test system: HOP-92 NSCLC
HS 578T breast = test system: HS 578T breast
HT29 colon = test system: HT29 colon
IGROV1 ovarian = test system: IGROV1 ovarian
K-562 leukemia = test system: K-562 leukemia
KM12 colon = test system: KM12 colon
LOX IMVI melanoma = test system: LOX IMVI melanoma
M14 melanoma = test system: M14 melanoma
MALME-3M melanoma = test system: MALME-3M melanoma
MCF7 breast = test system: MCF7 breast
MDA-MB-231 breast = test system: MDA-MB-231 breast
MDA-MB-435 = test system: MDA-MB-435
MOLT-4 leukemia = test system: MOLT-4 leukemia
NCI-H226 lung = test system: NCI-H226 lung
NCI-H23 lung = test system: NCI-H23 lung
NCI-H460 lung = test system: NCI-H460 lung
NCI-H522 lung = test system: NCI-H522 lung
NCI/ADR-RES ovarian = test system: NCI/ADR-RES ovarian
OVCAR-3 ovarian = test system: OVCAR-3 ovarian
OVCAR-4 ovarian = test system: OVCAR-4 ovarian
OVCAR-5 ovarian = test system: OVCAR-5 ovarian
OVCAR-8 ovarian = test system: OVCAR-8 ovarian
PC-3 prostate = test system: PC-3 prostate
RPMI-8226 leukemia = test system: RPMI-8226 leukemia
RXF 393 renal = test system: RXF 393 renal
SF-268 CNS = test system: SF-268 CNS
SF-295 CNS = test system: SF-295 CNS
SF-539 CNS = test system: SF-539 CNS
SK-MEL-2 melanoma = test system: SK-MEL-2 melanoma
SK-MEL-28 melanoma = test system: SK-MEL-28 melanoma
SK-MEL-5 melanoma = test system: SK-MEL-5 melanoma
SK-OV-3 ovarian = test system: SK-OV-3 ovarian
SN12C renal = test system: SN12C renal
SNB-19 CNS = test system: SNB-19 CNS
SNB-75 CNS = test system: SNB-75 CNS
SR leukemia = test system: SR leukemia
SW-620 colon = test system: SW-620 colon
T-47D breast = test system: T-47D breast
TK-10 renal = test system: TK-10 renal
U251 CNS = test system: U251 CNS
UACC-257 melanoma = test system: UACC-257 melanoma
UACC-62 melanoma = test system: UACC-62 melanoma
UO-31 renal = test system: UO-31 renal

For `CN1CCN(Cc2ccc(-c3cc4ncnc(Nc5ccc(OCc6cccc(F)c6)c(Cl)c5)c4s3)o2)CC1`, the GI50 (786-0 renal) was 4.47 µM, the TGI (786-0 renal) was 8.95 µM and the GI50 (A498 renal) was 3.5 µM. It also gave a TGI (A498 renal) of 7.57 µM, a GI50 (A549 NSCLC) of 3.2 µM and a TGI (A549 NSCLC) of 6.92 µM. It also gave a GI50 (ACHN renal) of 3.26 µM, a TGI (ACHN renal) of 6.95 µM and a GI50 (BT-549 breast) of 4.41 µM. For the same compound, the TGI (BT-549 breast) was 8.91 µM, the GI50 (CAKI-1 renal) was 3.33 µM and the TGI (CAKI-1 renal) was 7.98 µM. For the same compound, the GI50 (CCRF-CEM leukemia) was 3.81 µM, the TGI (CCRF-CEM leukemia) was 9.18 µM and the GI50 (COLO 205 colon) was 4.8 µM. The TGI (COLO 205 colon) was 8.66 µM, the GI50 (DU-145 prostate) was 4.03 µM and the TGI (DU-145 prostate) was 7.47 µM. The GI50 (EKVX NSCLC) was 2.95 µM, the TGI (EKVX NSCLC) was 8.78 µM and the GI50 (HCC-2998 colon) was 4.24 µM. The TGI (HCC-2998 colon) was 7.99 µM, the GI50 (HCT-116 colon) was 3.62 µM and the TGI (HCT-116 colon) was 7.42 µM. It also gave a GI50 (HCT-15 colon) of 2.92 µM, a TGI (HCT-15 colon) of 6.39 µM and a GI50 (HL-60(TB) leukemia) of 4.62 µM. For the same compound, the TGI (HL-60(TB) leukemia) was 9.34 µM, the GI50 (HOP-62 NSCLC) was 4.64 µM and the TGI (HOP-62 NSCLC) was 9.12 µM. It also gave a GI50 (HOP-92 NSCLC) of 2.76 µM, a TGI (HOP-92 NSCLC) of 6.51 µM and a GI50 (HS 578T breast) of 5.57 µM. For the same compound, the TGI (HS 578T breast) was 12.7 µM, the GI50 (HT29 colon) was 1.38 µM and the TGI (HT29 colon) was 4.3 µM. It also gave a GI50 (IGROV1 ovarian) of 3.51 µM, a TGI (IGROV1 ovarian) of 8.34 µM and a GI50 (K-562 leukemia) of 2.08 µM. For the same compound, the TGI (K-562 leukemia) was 6.85 µM, the GI50 (KM12 colon) was 4.44 µM and the TGI (KM12 colon) was 8.19 µM. For the same compound, the GI50 (LOX IMVI melanoma) was 3.66 µM, the TGI (LOX IMVI melanoma) was 8.07 µM and the GI50 (M14 melanoma) was 4.63 µM. The TGI (M14 melanoma) was 8.81 µM, the GI50 (MALME-3M melanoma) was 4.56 µM and the TGI (MALME-3M melanoma) was 9.69 µM. It also gave a GI50 (MCF7 breast) of 3.86 µM, a TGI (MCF7 breast) of 7.81 µM and a GI50 (MDA-MB-231 breast) of 4.56 µM. It also gave a TGI (MDA-MB-231 breast) of 9.01 µM, a GI50 (MDA-MB-435) of 4.68 µM and a TGI (MDA-MB-435) of 10.4 µM. The GI50 (MOLT-4 leukemia) was 4.47 µM, the TGI (MOLT-4 leukemia) was 9.39 µM and the GI50 (NCI-H226 lung) was 4.39 µM. The TGI (NCI-H226 lung) was 10.4 µM, the GI50 (NCI-H23 lung) was 4.29 µM and the TGI (NCI-H23 lung) was 8.44 µM. For the same compound, the GI50 (NCI-H460 lung) was 4.56 µM, the TGI (NCI-H460 lung) was 8.85 µM and the GI50 (NCI-H522 lung) was 4.75 µM. The TGI (NCI-H522 lung) was 9.46 µM, the GI50 (NCI/ADR-RES ovarian) was 4.32 µM and the TGI (NCI/ADR-RES ovarian) was 9.32 µM. It also gave a GI50 (OVCAR-3 ovarian) of 4.23 µM, a TGI (OVCAR-3 ovarian) of 8.01 µM and a GI50 (OVCAR-4 ovarian) of 3.69 µM. For the same compound, the TGI (OVCAR-4 ovarian) was 7.5 µM, the GI50 (OVCAR-5 ovarian) was 3.91 µM and the TGI (OVCAR-5 ovarian) was 7.8 µM. It also gave a GI50 (OVCAR-8 ovarian) of 4.53 µM, a TGI (OVCAR-8 ovarian) of 9.62 µM and a GI50 (PC-3 prostate) of 4.13 µM. It also gave a TGI (PC-3 prostate) of 8.17 µM, a GI50 (RPMI-8226 leukemia) of 3.91 µM and a TGI (RPMI-8226 leukemia) of 9.52 µM. For the same compound, the GI50 (RXF 393 renal) was 3.33 µM, the TGI (RXF 393 renal) was 7.52 µM and the GI50 (SF-268 CNS) was 4.07 µM. The TGI (SF-268 CNS) was 8.7 µM, the GI50 (SF-295 CNS) was 5.06 µM and the TGI (SF-295 CNS) was 10.4 µM. The GI50 (SF-539 CNS) was 4.17 µM, the TGI (SF-539 CNS) was 8.55 µM and the GI50 (SK-MEL-2 melanoma) was 5.33 µM. The TGI (SK-MEL-2 melanoma) was 10.2 µM, the GI50 (SK-MEL-28 melanoma) was 4.08 µM and the TGI (SK-MEL-28 melanoma) was 7.61 µM. For the same compound, the GI50 (SK-MEL-5 melanoma) was 3.77 µM, the TGI (SK-MEL-5 melanoma) was 7.54 µM and the GI50 (SK-OV-3 ovarian) was 4.67 µM. For the same compound, the TGI (SK-OV-3 ovarian) was 9.97 µM, the GI50 (SN12C renal) was 3.79 µM and the TGI (SN12C renal) was 7.85 µM. It also gave a GI50 (SNB-19 CNS) of 4.8 µM, a TGI (SNB-19 CNS) of 9.86 µM and a GI50 (SNB-75 CNS) of 4.29 µM. It also gave a TGI (SNB-75 CNS) of 9.11 µM, a GI50 (SR leukemia) of 4.43 µM and a TGI (SR leukemia) of 10 µM. The GI50 (SW-620 colon) was 4.66 µM, the TGI (SW-620 colon) was 8.64 µM and the GI50 (T-47D breast) was 4.12 µM. The TGI (T-47D breast) was 9.06 µM, the GI50 (TK-10 renal) was 3.02 µM and the TGI (TK-10 renal) was 6.64 µM. The GI50 (U251 CNS) was 3.34 µM, the TGI (U251 CNS) was 7.12 µM and the GI50 (UACC-257 melanoma) was 4.26 µM. The TGI (UACC-257 melanoma) was 8.37 µM, the GI50 (UACC-62 melanoma) was 4.97 µM and the TGI (UACC-62 melanoma) was 9.58 µM. For the same compound, the GI50 (UO-31 renal) was 3.3 µM and the TGI (UO-31 renal) was 7.37 µM.
